Laboratory results: patent US8436185B2, “Pharmaceutically acceptable salts of 2-{4-[(3S)-piperidin-3-yl]phenyl}-2H-indazole-7-carboxamide” (Merck Sharp & Dohme Corp., priority 2008, dated 2013)

What was measured:
PARP = conditions: rabbits, cited from earlier work
[1] = for Hygroscopicity (at 25° C.): in words

| Structure (SMILES) | reduction in infarct size (PARP; single injection 1 mg/kg) | reduction in infarct size in the heart (PARP; single injection 10 mg/kg, one minute before occlusion or before reperfusion) | moisture to 50% RH ([1]; 25° C., to 50% RH) [%] | moisture adsorbed to 95% RH ([1]; 25° C.) | Hygroscopicity (at 25° C.) [1] |
| --- | --- | --- | --- | --- | --- |
| Oc1cccc2c(O)nccc12 [1,5-dihydroxyisoquinoline] | 38-48% | – | – | – | – |
| NC(=O)c1cccc(N)c1 [3-amino-benzamide] | – | 32-42% | – | – | – |
| Cl.NC(=O)c1cccc2cn(-c3ccc([C@@H]4CCCNC4)cc3)nc12 [Chloride salt, (3S)-3-[4-[7-(Aminocarbonyl)-2H-indazol-2-yl]phenyl]piperidinium chloride] | – | – | 10 | 60% moisture to 95% RH) | Highly hygroscopic |
| Cc1ccc(S(=O)(=O)O)cc1.NC(=O)c1cccc2cn(-c3ccc([C@@H]4CCCNC4)cc3)nc12 [Example 1, (3S)-3-{4-[7-(Aminocarbonyl)-2H-indazol-2-yl]phenyl}piperidinium 4-methylbenzenesulfonate] | – | – | – | 0.3% | Non-hygroscopic |
